Where two headings read alike, the source gives them in different places.
Columns and labels:
[1] = Stability in human serum at 37 °C (radio-HPLC); format: in vitro ADME
Experimental: (§1) The ^177Lu-labeled peptides were incubated in 300-μL phosphate buffered saline (PBS; Gibco, ThermoFisher, The Netherlands) at 37 °C, and their stability was verified after 1, 4, 24, 48, and 72 h by radio-HPLC (Supplementary Fig. 2). The stability in serum was determined by incubating the radiolabeled compounds into 300 μL of mouse serum (Invitrogen, USA) or human serum (Sigma Aldrich, USA) at 37 °C (Supplementary Fig. 3, 4). At each time point post-incubation, 35 μL of the mixture was added to an Eppendorf tube, and the proteins were precipitated by adding an equal volume of acetonitrile. The tubes were centrifuged at 16,000 rpm, 4 °C for 20 min, and the stability was monitored by radio-HPLC, expressed as the RCP at the different time points.

[2] = In vivo biodistribution and clearance in PC-3 tumor-bearing mice; settings: male, NMRI-Foxn1 nu/nu, mouse, iv, total radioactivity, i.v.; for tissue uptake at 1 h: 1 h p.i.; for tissue uptake at 4 h: 4 h p.i.; for tissue uptake at 24 h: 24 h p.i.; for tissue uptake at 48 h: 48 h p.i.; for tissue uptake at 72 h: 72 h p.i.
Experimental: All animal experiments were approved by the Animal Welfare Committee of the Erasmus MC, and all experiments were conducted in accordance to institutional guidelines.
At 1, 4, 24, 48, and 72 h post-injection (p.i.), animals were sedated using 2.5% isoflurane in oxygen, and blood was collected via the orbital vein, after which the animals were euthanized using cervical dislocation. Subsequently, the following organs were collected; the tail, tumor, spleen, liver, pancreas, small intestine, colon, coecum, kidneys, lung, and muscle. […] The collected tumor and organs were weighed, and the radioactivity was measured in the gamma counter. The biodistribution data are expressed as percentage injected dose per gram of tissue (% ID/g). Animal numbers per group are indicated in Supplementary Table 1 and 2.
Statistical analysis was performed using Graphpad Prism version 9.0.0. Outliers were identified using the ROUT method with a Q value of 1%. IC50 curves were determined using non-linear regression.

[3] = Stability in mouse serum at 37 °C (radio-HPLC); format: in vitro ADME
Experimental: as §1

[4] = set-up: method as in PMID 35951084; settings: cited from earlier work
[5] = 1 h, read-out: intact radiolabeled ligand (RCP)
[6] = 4 h, read-out: intact radiolabeled ligand (RCP)
[7] = 24 h, read-out: intact radiolabeled ligand (RCP)
[8] = 48 h, read-out: intact radiolabeled ligand (RCP)
[9] = 72 h, read-out: intact radiolabeled ligand (RCP)
[10] = PC-3 tumor, read-out: % uptake PC-3 tumor
[11] = blood, read-out: % uptake blood
[12] = gastrointestinal tract, read-out: % uptake gastrointestinal tract
[13] = kidney, read-out: % uptake kidney
[14] = liver, read-out: % uptake liver
[15] = muscle, read-out: % uptake muscle
[16] = pancreas, read-out: % uptake pancreas
[17] = prostate, read-out: % uptake prostate
[18] = spleen, read-out: % uptake spleen

CC(C)CC(CC(C)C)NC(=O)[C@H](Cc1cnc[nH]1)NC(=O)CNC(=O)[C@@H](NC(=O)[C@H](C)NC(=O)[C@H](Cc1c[nH]c2ccccc12)NC(=O)[C@H](CCC(N)=O)NC(=O)[C@@H](Cc1ccccc1)NC(=O)COCC(=O)Nc1ccc(CNC(=O)CN2CCN(CC(=O)O)CCN(CC(=O)O)CCN(CC(=O)O)CC2)cc1)C(C)C [[^177Lu]Lu-NeoB, metal not drawn]
intact radiolabeled ligand (RCP) ([1]; 0 h): 97.1 ± 0.3%
remaining at 1 h [1, 5]: 97.9 ± 0.2%
remaining at 4 h [1, 6]: 97.8 ± 0.3%
remaining at 24 h [1, 7]: 89.2 ± 0.5%
remaining at 48 h [1, 8]: 81 ± 0.7%
remaining at 72 h [1, 9]: 75.6 ± 1.7%
tissue uptake at 1 h [2, 10]: 9.38 ± 0.81 %ID/g
tissue uptake at 4 h [2, 10]: 9.98 ± 2.64 %ID/g
tissue uptake at 24 h [2, 10]: 8.05 %ID/g
tissue uptake at 48 h [2, 10]: 4.77 %ID/g
tissue uptake at 72 h [2, 10]: 2.88 %ID/g
tissue uptake at 1 h [2, 11]: 1.15 %ID/g
tissue uptake at 4 h [2, 11]: 0.11 %ID/g
tissue uptake at 24 h [2, 11]: 0.01 %ID/g
tissue uptake at 48 h [2, 11]: 0.01 %ID/g
tissue uptake at 1 h [2, 12]: 3.08 %ID/g
tissue uptake at 4 h [2, 12]: 1.91 %ID/g
tissue uptake at 24 h [2, 12]: 0.09 %ID/g
tissue uptake at 48 h [2, 12]: 0.26 %ID/g
tissue uptake at 72 h [2, 12]: 0.15 %ID/g
tissue uptake at 1 h [2, 13]: 2.68 %ID/g
tissue uptake at 4 h [2, 13]: 0.86 %ID/g
tissue uptake at 24 h [2, 13]: 0.1 %ID/g
tissue uptake at 48 h [2, 13]: 0.06 %ID/g
tissue uptake at 72 h [2, 13]: 0.04 %ID/g
tissue uptake at 1 h [2, 14]: 3.35 %ID/g
tissue uptake at 4 h [2, 14]: 0.54 %ID/g
tissue uptake at 24 h [2, 14]: 0.12 %ID/g
tissue uptake at 48 h [2, 14]: 0.08 %ID/g
tissue uptake at 72 h [2, 14]: 0.06 %ID/g
tissue uptake at 1 h ([2]; lung, read-out: % uptake lungs): 0.69 %ID/g
tissue uptake at 4 h ([2]; lung, read-out: % uptake lungs): 0.09 %ID/g
tissue uptake at 24 h ([2]; lung, read-out: % uptake lungs): 0.02 %ID/g
tissue uptake at 48 h ([2]; lung, read-out: % uptake lungs): 0.01 %ID/g
tissue uptake at 72 h ([2]; lung, read-out: % uptake lungs): 0.01 %ID/g
tissue uptake at 1 h [2, 15]: 0.13 %ID/g
tissue uptake at 4 h [2, 15]: 0.05 %ID/g
tissue uptake at 1 h [2, 16]: 30.7 ± 4.29 %ID/g
tissue uptake at 4 h [2, 16]: 21.4 ± 3.05 %ID/g
tissue uptake at 24 h [2, 16]: 4.14 %ID/g
tissue uptake at 48 h [2, 16]: 0.83 %ID/g
tissue uptake at 72 h [2, 16]: 0.35 %ID/g
tissue uptake at 1 h [2, 17]: 0.7 %ID/g
tissue uptake at 4 h [2, 17]: 0.08 %ID/g
tissue uptake at 24 h [2, 17]: 0.02 %ID/g
tissue uptake at 48 h [2, 17]: 0.01 %ID/g
tissue uptake at 72 h [2, 17]: 0.01 %ID/g
tissue uptake at 1 h [2, 18]: 0.43 %ID/g
tissue uptake at 4 h [2, 18]: 0.15 %ID/g
tissue uptake at 24 h [2, 18]: 0.04 %ID/g
tissue uptake at 48 h [2, 18]: 0.02 %ID/g
tissue uptake at 72 h [2, 18]: 0.01 %ID/g
intact radiolabeled ligand (RCP) ([3]; 0 h): 97.1 ± 0.3%
remaining at 1 h [3, 5]: 94.3 ± 0.7%
remaining at 4 h [3, 6]: 84.1 ± 1.1%
remaining at 24 h [3, 7]: 27.9 ± 2.3%
remaining at 48 h [3, 8]: 14.2 ± 1%
remaining at 72 h [3, 9]: 4.4 ± 1.2%
tolerability ([4]; after repeated radiotracer administration): well tolerated
hematological effects after treatment [4]: no lasting hematological effects
